The target in assay [1] is T1, Voltage-gated N-type calcium channel alpha-1B subunit/Amyloid beta A4 precursor protein-binding family A member 1 (Homo sapiens, UniProt Q00975+Q02410). In words: disruptors of Mint-PDZ/N-type channel peptide interaction – biochemical, HTRF, set 2, SAR follow-up (AID 434980). It counts as functional.
Assay [2] addresses T1, Voltage-gated N-type calcium channel alpha-1B subunit/Amyloid beta A4 precursor protein-binding family A member 1. Kind of assay: disruptors of Mint-PDZ/N-type channel peptide interaction – biochemical, HTRF, SAR follow-up (AID 2489). It counts as functional.
In a further assay the target is Wee1-like protein kinase (Homo sapiens, UniProt P30291). In words: HeLa cell cycle G2/M accumulation – FACS, mechanism study for Wee1 degradation inhibitor project, late-stage follow-up, panel member Wee1 Degradation (AID 2088).
Assay [3] concerns the target G2/mitotic-specific cyclin-B1 (Homo sapiens, UniProt P14635). Kind of assay: HeLa cell cycle G2/M accumulation – FACS, mechanism study for Wee1 degradation inhibitor project, late-stage follow-up, panel member Cyclin B Degradation (AID 2088).
The target in assay [4] is Dual specificity protein phosphatase 3 (Homo sapiens, UniProt P51452). Kind of assay: inhibition constants for human DUSP3 – biochemical, colorimetric, SAR follow-up (AID 2004).
The target in another assay is Hexokinase HKDC1 (Homo sapiens, UniProt Q2TB90). In words: inhibition of HKDC1 glucose phosphorylation – biochemical, W721R variant, dose response (AID 504729). It counts as functional.
Assay [5] addresses T2, Replicative DNA helicase DnaB (Mycobacterium tuberculosis, UniProt P9WMR3).
T2 sequence (P9WMR3 whole entry): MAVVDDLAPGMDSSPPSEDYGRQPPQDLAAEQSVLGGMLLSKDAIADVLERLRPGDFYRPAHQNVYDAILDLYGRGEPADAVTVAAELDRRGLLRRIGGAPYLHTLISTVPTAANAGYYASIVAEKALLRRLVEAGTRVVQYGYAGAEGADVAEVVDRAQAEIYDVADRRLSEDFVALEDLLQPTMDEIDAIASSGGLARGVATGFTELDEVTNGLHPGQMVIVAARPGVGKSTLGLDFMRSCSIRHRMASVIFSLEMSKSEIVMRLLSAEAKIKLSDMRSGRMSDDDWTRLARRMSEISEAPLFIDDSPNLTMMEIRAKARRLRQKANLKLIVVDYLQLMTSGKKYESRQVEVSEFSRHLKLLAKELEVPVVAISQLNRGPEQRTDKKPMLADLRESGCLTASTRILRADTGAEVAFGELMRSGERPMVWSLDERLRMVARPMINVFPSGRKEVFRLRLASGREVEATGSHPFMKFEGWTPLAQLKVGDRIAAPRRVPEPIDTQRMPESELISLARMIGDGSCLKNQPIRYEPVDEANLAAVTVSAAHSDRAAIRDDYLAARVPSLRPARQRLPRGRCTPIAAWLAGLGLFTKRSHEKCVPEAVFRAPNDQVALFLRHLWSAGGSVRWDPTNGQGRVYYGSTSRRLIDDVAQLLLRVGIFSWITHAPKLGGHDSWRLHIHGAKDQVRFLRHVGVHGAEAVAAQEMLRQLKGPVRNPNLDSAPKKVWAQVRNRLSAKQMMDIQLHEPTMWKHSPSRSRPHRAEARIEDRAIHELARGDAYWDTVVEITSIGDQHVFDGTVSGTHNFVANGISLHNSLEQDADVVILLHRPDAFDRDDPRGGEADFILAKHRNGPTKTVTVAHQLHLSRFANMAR
Kind of assay: DnaB intein splicing inhibitors, dose response, biochemical, cell-free fluorescence (AID 449749). It counts as functional.

The target in a further assay is T3, Protein RecA (Mycobacterium tuberculosis, UniProt P9WHJ3).
T3 sequence (P9WHJ3 whole entry): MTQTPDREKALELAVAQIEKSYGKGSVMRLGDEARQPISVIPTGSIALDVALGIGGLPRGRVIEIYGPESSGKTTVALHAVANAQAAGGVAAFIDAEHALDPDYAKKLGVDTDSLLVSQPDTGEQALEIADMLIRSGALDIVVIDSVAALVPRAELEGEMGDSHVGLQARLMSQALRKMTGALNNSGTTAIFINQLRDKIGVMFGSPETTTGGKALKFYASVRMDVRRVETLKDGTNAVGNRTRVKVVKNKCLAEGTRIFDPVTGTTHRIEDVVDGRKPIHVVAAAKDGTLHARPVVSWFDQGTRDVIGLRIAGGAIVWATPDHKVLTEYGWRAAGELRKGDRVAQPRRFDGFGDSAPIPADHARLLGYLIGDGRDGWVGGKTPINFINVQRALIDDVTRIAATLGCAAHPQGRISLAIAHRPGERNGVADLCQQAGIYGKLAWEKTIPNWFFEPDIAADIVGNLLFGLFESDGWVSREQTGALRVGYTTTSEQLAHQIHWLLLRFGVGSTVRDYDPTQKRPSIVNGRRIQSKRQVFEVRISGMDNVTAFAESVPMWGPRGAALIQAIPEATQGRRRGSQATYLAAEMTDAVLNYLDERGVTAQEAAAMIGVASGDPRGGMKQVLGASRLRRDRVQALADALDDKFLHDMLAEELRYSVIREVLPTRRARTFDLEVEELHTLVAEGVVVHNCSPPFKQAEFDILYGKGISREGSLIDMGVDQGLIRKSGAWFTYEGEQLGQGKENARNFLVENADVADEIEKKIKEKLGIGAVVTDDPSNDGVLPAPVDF
Kind of assay: Fluorescence Cell-Free Homogeneous Dose Retest to Identify Inhibitors of RecA-Intein Splicing Activity. [Related pubchem assays (depositor defined):AID2097, AID2223, AID489010, AID492950]. In kind it is functional.

Assay [6] is described as follows: luciferase reporter signal suppression in cells – H4 neuroglioma cells, luminescence, dose response (AID 1990). It counts as functional, cell-based.
Assay [7] can be described thus: Luminescence Cell-Based Dose Response HTS to Identify Inhibitors of 5'UTR Stem-Loop Driven Prion Protein mRNA Translation in H4 Neuroglioblastoma Cells. [Related pubchem assays: 1827 (Project Summary), 1813 (Primary HTS)]. It counts as functional.
A short description of assay [8]: alpha-synuclein stem-loop luciferase translation blockers – H4 neuroglioma cells, luminescence, confirmation (AID 1988). In kind it is functional, cell-based.
For assay [9], the target named is Scavenger receptor class B member 1 (Mus musculus, UniProt Q61009). In words: mouse SR-BI DiI-HDL uptake blockers – ldlA[mSR-BI] cells, fluorescence, cherry pick, dose response (AID 493194).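 Further: cellular uptake of fluorescent DiI-labeled HDL measured as cell fluorescence.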 It counts as functional, cell-based.
In the next assay the test system is Vero. Kind of assay: cells. It counts as functional, cell-based. Conditions: Chlorocebus sabaeus.
Assay [10] has as its target G-protein coupled receptor 35 (Homo sapiens, UniProt Q9HC97). Kind of assay: inhibition of zaprinast-stimulated GPR35 beta-arrestin translocation – imaging, U2OS, beta-arrestin-GFP, zaprinast agonist, primary screen (AID 2058).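 Further: antagonist potency meaning inhibition of agonist-induced arrestin redistribution.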 In kind it is functional.
Assay [11] deals with Streptococcus sp. 'group A'. In words: Streptococcus pyogenes SK(-)GAS viability under kanamycin – luminescence, BacTiterGlo, confirmation, counter-screen for streptokinase expression inhibitor project, dose response (AID 1900). In kind it is functional, organism-based.
The target in a further assay is T4, Streptokinase A (Streptococcus pyogenes serotype M1, UniProt P10520).
T4 sequence (P10520 whole entry): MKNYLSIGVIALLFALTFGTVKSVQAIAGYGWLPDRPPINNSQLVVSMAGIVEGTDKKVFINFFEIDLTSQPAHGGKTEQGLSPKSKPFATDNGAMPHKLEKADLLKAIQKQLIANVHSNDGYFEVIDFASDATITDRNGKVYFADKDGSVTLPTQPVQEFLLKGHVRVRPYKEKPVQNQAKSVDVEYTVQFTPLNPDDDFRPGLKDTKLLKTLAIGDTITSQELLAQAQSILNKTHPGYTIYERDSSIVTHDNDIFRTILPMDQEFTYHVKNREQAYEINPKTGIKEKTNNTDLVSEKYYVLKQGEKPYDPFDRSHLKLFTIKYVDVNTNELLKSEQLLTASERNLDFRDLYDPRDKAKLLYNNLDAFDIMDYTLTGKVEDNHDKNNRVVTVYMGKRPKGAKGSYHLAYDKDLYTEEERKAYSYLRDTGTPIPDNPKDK
In words: viability-normalized secreted streptokinase activity reduction – plasminogen activation absorbance, OD405, dose response (AID 1914).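 Further: secreted streptokinase activity via plasminogen activation per viability signal from cell pellet.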 In kind it is functional, Streptococcus pyogenes M1 GAS.

A further assay concerns Streptococcus. In words: GAS UMAA2166 growth inhibition – luminescence, BacTiterGlo, counter-screen for streptokinase expression inhibitor project, dose response (AID 1915).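 Further: potency for reduction of bacterial viability or growth.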 It counts as functional, organism-based.
Assay [12] addresses T5, Mu-type opioid receptor (Homo sapiens, UniProt P35372). In words: mu opioid receptor activators, image-based, SAR follow-up (AID 2352). In kind it is functional.
For assay [13], the target named is T6, Delta-type opioid receptor (Homo sapiens, UniProt P41143). Kind of assay: DOR agonists, SAR follow-up, image-based (AID 2370). It counts as functional.
Assay [14] concerns the target T7, Kappa-type opioid receptor (Homo sapiens, UniProt P41145). Kind of assay: kappa opioid receptor blockers, image-based, SAR follow-up (AID 2348). In kind it is functional.
In assay [15] the target is T5, Mu-type opioid receptor. In words: mu opioid receptor blockers – image-based, SAR follow-up (AID 2420).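 Further: compounds added before stimulation of receptor with agonist DAMGO.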 It counts as functional.
Assay [16] concerns the target T7, Kappa-type opioid receptor. Kind of assay: kappa opioid receptor activation potency – imaging, image-based, SAR follow-up (AID 2359). In kind it is functional.
In assay [17] the target is T6, Delta-type opioid receptor. Kind of assay: delta opioid receptor blockers – image-based, SAR follow-up (AID 2357). It counts as functional.
The target of assay [18] is T7, Kappa-type opioid receptor. Kind of assay: kappa opioid receptor blockers, cell-based, luminescence, beta-arrestin, SAR follow-up (AID 2285). In kind it is functional.
Assay [19] has as its target Cyclin-dependent kinase 5/CDK5 activator 1 (Homo sapiens, UniProt Q00535). In words: blockade of human CDK5 activity – biochemical, cherry-picked samples, set 2, dose response (AID 504545).
Assay [20] deals with SWI/SNF-related matrix-associated actin-dependent regulator of chromatin subfamily A member 2 (Homo sapiens, UniProt P51531). Kind of assay: Luminescence-based cell-based high throughput dose response assay to identify activators of the function of SWI/SNF related, matrix associated, actin dependent regulator of chromatin, subfamily a, member 2 (SMARCA2, BRM). In kind it is functional.

Assay [21] can be described thus: Counterscreen for activators of the function of SWI/SNF related, matrix associated, actin dependent regulator of chromatin, subfamily a, member 2 (SMARCA2, BRM): Luminescence-based cell-based high throughput dose response assay to identify non-selective compounds using the VP16 reporter assay. It counts as functional.
Another assay concerns the target Trypsin (Sus scrofa, UniProt P00761). Kind of assay: trypsin protease activity blockade – biochemical, quenched peptide fluorescence, cherry-pick, selectivity assay for Rce1 protease inhibitor project, dose response (AID 488789).
In a further assay the target is Protein Rev (Human immunodeficiency virus type 1 group M subtype B (isolate HXB2)(HIV-1), UniProt P04618). Kind of assay: blockers of HIV Rev/RRE RNA complex – biochemical, fluorescence polarization, HIV-1, dose response (AID 434976). Also on record: species or system Human immunodeficiency virus 1.
Assay [22] addresses Female germline-specific tumor suppressor gld-1 (Caenorhabditis elegans, UniProt Q17339). In words: blockers of GLD-1/TGE RNA complex formation – biochemical, fluorescence polarization, C. elegans, dose response (AID 2802).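 Further: fluorescence polarization of labeled TGE RNA bound by purified gld-1 protein.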
Assay [23] addresses Neurotensin receptor type 1 (Homo sapiens, UniProt P30989). In kind it is functional.

Structures are written as SMILES. Activity calls are given as the source filed them. A value given as a limit tells only on which side of the number the result lay.

T7 sequence (P41145 whole entry): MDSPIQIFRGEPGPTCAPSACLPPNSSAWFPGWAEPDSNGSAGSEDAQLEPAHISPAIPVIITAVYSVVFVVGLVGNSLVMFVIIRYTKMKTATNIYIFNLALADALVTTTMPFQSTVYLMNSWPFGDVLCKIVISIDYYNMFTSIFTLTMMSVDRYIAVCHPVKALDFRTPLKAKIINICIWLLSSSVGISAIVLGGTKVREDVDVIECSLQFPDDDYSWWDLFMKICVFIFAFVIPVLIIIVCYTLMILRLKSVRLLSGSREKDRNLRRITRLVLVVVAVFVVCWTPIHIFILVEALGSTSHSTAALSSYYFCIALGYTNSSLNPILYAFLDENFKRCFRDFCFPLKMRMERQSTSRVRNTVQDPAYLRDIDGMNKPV
T6 sequence (P41143 whole entry): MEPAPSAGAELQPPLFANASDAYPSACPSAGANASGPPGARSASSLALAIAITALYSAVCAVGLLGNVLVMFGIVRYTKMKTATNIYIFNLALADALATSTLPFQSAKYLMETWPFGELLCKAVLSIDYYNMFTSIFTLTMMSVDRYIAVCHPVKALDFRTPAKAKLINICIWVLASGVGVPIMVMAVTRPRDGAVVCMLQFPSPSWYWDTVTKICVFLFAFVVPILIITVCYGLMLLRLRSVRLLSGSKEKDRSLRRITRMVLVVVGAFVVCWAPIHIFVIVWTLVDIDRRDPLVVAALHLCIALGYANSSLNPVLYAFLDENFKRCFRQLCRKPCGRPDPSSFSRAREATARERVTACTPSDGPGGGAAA
T5 sequence (P35372 whole entry): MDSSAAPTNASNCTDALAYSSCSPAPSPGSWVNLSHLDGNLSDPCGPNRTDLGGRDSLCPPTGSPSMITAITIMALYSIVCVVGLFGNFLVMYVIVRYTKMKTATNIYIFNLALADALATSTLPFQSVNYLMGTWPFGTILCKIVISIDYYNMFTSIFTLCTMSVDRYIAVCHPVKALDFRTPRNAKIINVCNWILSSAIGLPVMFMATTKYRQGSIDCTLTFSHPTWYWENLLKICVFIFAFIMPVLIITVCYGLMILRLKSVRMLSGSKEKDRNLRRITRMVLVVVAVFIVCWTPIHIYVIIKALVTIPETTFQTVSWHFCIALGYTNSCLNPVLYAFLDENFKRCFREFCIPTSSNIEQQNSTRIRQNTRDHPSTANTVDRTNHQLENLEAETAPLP
T1 sequence (Q00975 whole entry): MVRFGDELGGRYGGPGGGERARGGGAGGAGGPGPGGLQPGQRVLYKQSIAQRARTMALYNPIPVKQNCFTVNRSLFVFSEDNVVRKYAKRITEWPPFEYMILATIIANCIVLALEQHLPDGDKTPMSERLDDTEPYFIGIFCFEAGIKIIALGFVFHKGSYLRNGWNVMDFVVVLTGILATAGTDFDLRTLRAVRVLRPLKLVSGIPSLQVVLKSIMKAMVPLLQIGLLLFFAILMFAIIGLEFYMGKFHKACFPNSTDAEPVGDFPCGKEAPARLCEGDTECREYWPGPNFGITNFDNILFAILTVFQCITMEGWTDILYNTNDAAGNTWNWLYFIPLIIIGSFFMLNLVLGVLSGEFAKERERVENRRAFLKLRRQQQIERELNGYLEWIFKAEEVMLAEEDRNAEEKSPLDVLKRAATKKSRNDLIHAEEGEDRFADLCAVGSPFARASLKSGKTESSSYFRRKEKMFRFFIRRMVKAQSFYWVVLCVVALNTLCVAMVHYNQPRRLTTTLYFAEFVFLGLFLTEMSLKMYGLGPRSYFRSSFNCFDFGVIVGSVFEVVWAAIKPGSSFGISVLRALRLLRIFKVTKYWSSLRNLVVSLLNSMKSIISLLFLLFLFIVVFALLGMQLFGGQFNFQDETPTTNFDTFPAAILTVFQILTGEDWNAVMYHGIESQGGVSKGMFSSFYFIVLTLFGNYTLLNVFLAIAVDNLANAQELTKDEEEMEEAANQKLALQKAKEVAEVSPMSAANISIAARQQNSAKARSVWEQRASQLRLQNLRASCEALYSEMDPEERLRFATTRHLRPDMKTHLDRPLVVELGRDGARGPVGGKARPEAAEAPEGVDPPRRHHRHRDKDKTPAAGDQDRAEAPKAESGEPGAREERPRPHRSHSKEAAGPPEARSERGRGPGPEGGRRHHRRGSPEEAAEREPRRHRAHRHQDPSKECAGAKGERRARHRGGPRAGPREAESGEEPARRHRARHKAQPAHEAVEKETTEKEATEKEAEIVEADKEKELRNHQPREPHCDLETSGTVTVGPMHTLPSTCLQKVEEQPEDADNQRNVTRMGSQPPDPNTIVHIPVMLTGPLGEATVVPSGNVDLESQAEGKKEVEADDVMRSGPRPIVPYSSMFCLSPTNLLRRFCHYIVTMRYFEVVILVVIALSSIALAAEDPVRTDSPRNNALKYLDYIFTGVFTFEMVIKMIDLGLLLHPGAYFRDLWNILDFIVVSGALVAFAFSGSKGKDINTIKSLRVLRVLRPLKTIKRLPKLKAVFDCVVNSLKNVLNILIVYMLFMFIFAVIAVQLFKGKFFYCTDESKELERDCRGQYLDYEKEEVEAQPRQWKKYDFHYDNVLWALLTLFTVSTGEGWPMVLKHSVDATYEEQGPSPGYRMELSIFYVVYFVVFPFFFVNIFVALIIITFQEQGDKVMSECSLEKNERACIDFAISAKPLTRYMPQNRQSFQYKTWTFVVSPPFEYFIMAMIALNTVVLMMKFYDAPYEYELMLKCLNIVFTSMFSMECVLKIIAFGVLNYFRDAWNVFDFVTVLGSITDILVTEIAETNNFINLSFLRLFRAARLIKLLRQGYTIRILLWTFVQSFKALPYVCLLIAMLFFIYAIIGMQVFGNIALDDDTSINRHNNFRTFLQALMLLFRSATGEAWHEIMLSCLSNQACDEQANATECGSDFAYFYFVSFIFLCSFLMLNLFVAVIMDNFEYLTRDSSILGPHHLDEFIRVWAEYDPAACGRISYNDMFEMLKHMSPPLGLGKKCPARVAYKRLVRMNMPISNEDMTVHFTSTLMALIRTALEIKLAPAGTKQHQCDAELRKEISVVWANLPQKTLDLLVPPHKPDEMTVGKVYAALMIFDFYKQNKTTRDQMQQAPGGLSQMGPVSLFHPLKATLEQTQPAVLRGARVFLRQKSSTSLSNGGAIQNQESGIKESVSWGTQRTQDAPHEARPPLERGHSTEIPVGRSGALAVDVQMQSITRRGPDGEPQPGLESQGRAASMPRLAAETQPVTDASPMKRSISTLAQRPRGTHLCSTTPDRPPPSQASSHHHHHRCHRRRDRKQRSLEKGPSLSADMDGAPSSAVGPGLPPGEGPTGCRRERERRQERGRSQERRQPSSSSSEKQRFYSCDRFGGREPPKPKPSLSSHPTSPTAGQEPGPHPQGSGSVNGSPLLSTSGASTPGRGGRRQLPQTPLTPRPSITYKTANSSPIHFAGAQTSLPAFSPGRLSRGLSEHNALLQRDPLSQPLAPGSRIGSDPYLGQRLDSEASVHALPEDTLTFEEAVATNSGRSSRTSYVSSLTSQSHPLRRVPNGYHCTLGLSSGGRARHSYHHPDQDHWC
T1 sequence (Q02410 whole entry): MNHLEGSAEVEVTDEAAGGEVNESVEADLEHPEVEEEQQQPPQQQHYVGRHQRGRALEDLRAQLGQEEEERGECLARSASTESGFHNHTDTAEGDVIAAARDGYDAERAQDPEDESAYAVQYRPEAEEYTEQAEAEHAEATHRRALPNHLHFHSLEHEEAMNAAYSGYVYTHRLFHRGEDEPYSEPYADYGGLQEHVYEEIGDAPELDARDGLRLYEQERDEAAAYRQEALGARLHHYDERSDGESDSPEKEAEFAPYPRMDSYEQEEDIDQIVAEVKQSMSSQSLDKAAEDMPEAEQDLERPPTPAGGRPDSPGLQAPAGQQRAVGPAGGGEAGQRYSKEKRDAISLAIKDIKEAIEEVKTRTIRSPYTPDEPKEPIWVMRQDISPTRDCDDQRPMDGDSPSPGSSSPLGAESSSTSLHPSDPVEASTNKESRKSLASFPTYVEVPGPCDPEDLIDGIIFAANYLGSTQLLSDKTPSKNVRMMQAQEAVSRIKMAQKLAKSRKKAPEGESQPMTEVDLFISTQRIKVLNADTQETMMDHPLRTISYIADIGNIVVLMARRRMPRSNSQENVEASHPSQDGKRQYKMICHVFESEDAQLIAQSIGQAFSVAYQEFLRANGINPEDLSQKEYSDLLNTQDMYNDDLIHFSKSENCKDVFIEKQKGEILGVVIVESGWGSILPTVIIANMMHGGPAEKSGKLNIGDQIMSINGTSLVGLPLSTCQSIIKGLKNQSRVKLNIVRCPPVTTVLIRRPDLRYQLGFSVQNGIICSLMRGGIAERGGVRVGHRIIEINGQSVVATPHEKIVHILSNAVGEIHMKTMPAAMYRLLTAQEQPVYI
Scavenger receptor class B member 1, sequence (Q61009 whole entry): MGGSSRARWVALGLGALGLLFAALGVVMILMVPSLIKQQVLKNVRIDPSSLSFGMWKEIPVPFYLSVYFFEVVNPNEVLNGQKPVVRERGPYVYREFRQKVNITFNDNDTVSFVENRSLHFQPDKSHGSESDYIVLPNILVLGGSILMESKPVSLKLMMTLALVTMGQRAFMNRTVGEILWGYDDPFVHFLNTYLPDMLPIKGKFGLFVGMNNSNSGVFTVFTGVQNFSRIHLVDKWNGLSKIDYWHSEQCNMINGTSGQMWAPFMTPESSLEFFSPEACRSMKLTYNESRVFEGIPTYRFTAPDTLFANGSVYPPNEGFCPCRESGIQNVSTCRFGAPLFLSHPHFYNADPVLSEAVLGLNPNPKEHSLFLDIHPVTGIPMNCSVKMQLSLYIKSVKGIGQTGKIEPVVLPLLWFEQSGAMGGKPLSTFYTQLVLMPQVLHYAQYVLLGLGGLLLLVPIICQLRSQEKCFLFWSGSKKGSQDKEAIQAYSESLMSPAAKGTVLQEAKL
Protein Rev, sequence (P04618 whole entry): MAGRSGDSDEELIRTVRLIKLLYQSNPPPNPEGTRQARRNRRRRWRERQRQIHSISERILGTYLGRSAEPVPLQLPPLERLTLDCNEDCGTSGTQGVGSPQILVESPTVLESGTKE

On to `COc1ccccc1CNC(=O)COC(=O)c1cccc2ccccc12`, for which the results for the IC50 in assay [1] and in assay [2] were 19.4 µM (active) and > 56.8 µM (inactive), respectively.

Consider `Cc1cc(NC(=O)c2cccc(F)c2)n(-c2nc(=O)cc(C)[nH]2)n1`, for which the EC50 (at Wee1-like protein kinase; in [3]) was > 49.7 µM (inactive) each time.

Take `COC(=O)c1ccc(COc2cc3oc(=O)cc(-c4ccccc4)c3cc2Cl)cc1`: in assay [4], the Ki is 28.9 µM (inactive).

`O=c1c2ccccc2nc(/C=C/c2cccnc2)n1CCc1ccccc1`: the IC50 on Hexokinase HKDC1 was 17.5 µM (active). Further, in assay [5], the AC50 is 60.6 µM (active). The EC50 on Protein RecA was 12 µM (active).

Consider `Cc1cc(SC(C)C(=O)Nc2ncc(Cl)cc2Cl)nc2ccccc12` (stereo unspecified), for which the EC50 in [6] is > 120 µM (not active); in [7], > 120 µM (not active); in assay [8], 15.1 µM (active). Besides, in [9], the AC50 is 0.633 µM (active). Besides, the IC50 in the assay on Vero was 19.5 µM (active).

Consider `CCOc1ccc(N(C)c2ccc(/C=C3/SC(=S)NC3=O)cc2)cc1`, for which the half-maximal inhibitory concentration (IC50) in assay [10] was 0.701 µM (active). The EC50 in assay [11] is 5.43 µM (active); on Streptokinase A, > 150 µM (not active); in the assay with Streptococcus it was 20.7 µM (active).

In the case of `O=C(Cn1c(=O)c2cccn2c2cccnc21)NCCCN1CCN(c2ccc(F)cc2)CC1`, the EC50 (on Mu-type opioid receptor [12]; in assay [13]; in assay [16]) was > 32 µM (inactive) throughout. The IC50 in [14] was 15.2 µM (inactive); at Mu-type opioid receptor [15], > 32 µM (inactive); in [17], > 32 µM (inactive); in assay [18] it was > 10 µM (inactive).

With `CC(C)[C@H](CO)Nc1nc(NCc2ccc(S(N)(=O)=O)cc2)c2ncn(C(C)C)c2n1`, the AC50 in assay [19] is 1.93 µM (active). For the same compound, the EC50 in assay [20] and in [21] was > 91.2 µM (inactive) each time.

On to `Cc1ccc(S(=O)(=O)c2cn(C)c3cc(N4CCOCC4)c(F)cc3c2=O)cc1`, for which the AC50 on Trypsin was 55.8 µM (active).

On to `Cc1ccc(S(=O)(=O)Nc2cc3c(C(=O)Nc4ccccc4)c(C)oc3c3ccccc23)cc1`, for which the IC50 against Protein Rev is > 75.4 µM (not active); in assay [22] it was 0.725 µM (active).

As to `Cc1cc(C)n(-c2nc(N(c3ccccc3)c3ccccc3)nc(-n3nc(C)cc3C)n2)n1`, in assay [23], the EC50 is 6.21 µM (active).

Values taken from ChEMBL document CHEMBL1201862, “PubChem BioAssay data set” (2004).
